Laboratory results as given in US10442804B2, “Compounds for the treatment of hepatitis B virus infection” (Gilead Sciences, Inc., priority 2017, dated 2019).
Read-outs that look alike come from different tables or passages of the source.

Tests used:
[1] = MT-4 cytotoxicity assay; assay type: cell-based, human; conditions: human
[2] = system: HBV-infected NTCP-HepG2 cells, secreted HBsAg; assay: microbe, parasite or virus in culture; assay type: cell-based, hepatitis B virus (genotype D, AD38-derived); conditions: Hepatitis B virus, 120 h, read-out: NTCP HBsAg EC50
Summary of the method: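 NTCP-HepG2 cells were infected with genotype D HBV at 4000 genome equivalents/cell, then seeded 4 days post-infection with serially diluted compounds (1% DMSO) for 5 days. Supernatant HBsAg was measured by chemiluminescent MSD immunoassay. EC50 from four-parameter fit, geometric mean of ≥4 determinations.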

[3] = secreted HBsAg in supernatant after 5 days, geometric mean of minimum four determinations
[4] = five days, Cell Titer Glo luminescence, read-out: MT-4 CC50

Structure (SMILES) | CC50 at 5 days ([1]; MT-4 CC50) [nM] | EC50 [2, 3] [nM] | CC50 at 5 days [1, 4] [nM] | EC50 [2] [nM]
O=C(O)c1cn2c(cc1=O)-c1cc(Cl)c(-c3cnn(C4COC4)c3)cc1[C@H]1CCC3(CC3)N12 [Example 86, (R)-11′-chloro-12′-(1-(oxetan-3-yl)-1H-pyrazol-4-yl)-8′-oxo-1′,2′,8′,13b′-tetrahydrospiro[cyclopropane-1,3′-pyrido[2,1-a]pyrrolo[1,2-c]phthalazine]-7′-carboxylic acid] | > 10000 | 24.8 |  | 
COCCCOc1cc2c(cc1C1CC1)-c1cc(=O)c(C(=O)O)cn1N1[C@@H]2CCC1(C)C [Example 28, (R)-11-cyclopropyl-12-(3-methoxypropoxy)-3,3-dimethyl-8-oxo-2,3,8,13b-tetrahydro-1H-pyrido[2,1-a]pyrrolo[1,2-c]phthalazine-7-carboxylic acid] |  | 0.78 | 8700 | 
COCCCOc1cc2c(cc1OC)-c1cc(=O)c(C(=O)O)cn1N1[C@@H]2CCCC1(C)C (single isomer, unassigned) [Example 52] |  | 0.91 | > 10000 | 
COCCCOc1cc2c(cc1Cl)-c1cc(=O)c(C(=O)O)cn1N1[C@@H]2CCC12COC2 [Example 82, (R)-11′-chloro-12′-(3-methoxypropoxy)-8′-oxo-1′,2′,8′,13b′-tetrahydrospiro[oxetane-3,3′-pyrido[2,1-a]pyrrolo[1,2-c]phthalazine]-7′-carboxylic acid] | > 10000 | 72 |  | 
CC1(C)CC[C@@H]2c3cc(OCC4COC4)c(C4CC4)cc3-c3cc(=O)c(C(=O)O)cn3N21 [Example 66, (R)-11-cyclopropyl-3,3-dimethyl-12-(oxetan-3-ylmethoxy)-8-oxo-2,3,8,13b-tetrahydro-1H-pyrido[2,1-a]pyrrolo[1,2-c]phthalazine-7-carboxylic acid] |  | 0.97 | > 10000 | 
COCCCOc1cc2c(cc1Cl)-c1cc(=O)c(C(=O)O)cn1N1[C@@H]2CCC12COC(C)(C)OC2 [Example 81, (R)-11-chloro-12-(3-methoxypropoxy)-2′,2′-dimethyl-8-oxo-1,2,8,13b-tetrahydrospiro[pyrido[2,1-a]pyrrolo[1,2-c]phthalazine-3,5′-[1,3]dioxane]-7-carboxylic acid] |  | 386 | > 10000 | 
CC1(C)CC[C@@H]2c3cc(OCC4CC(F)(F)C4)c(Cl)cc3-c3cc(=O)c(C(=O)O)cn3N21 [Example 54, (R)-11-chloro-12-((3,3-difluorocyclobutyl)methoxy)-3,3-dimethyl-8-oxo-2,3,8,13b-tetrahydro-1H-pyrido[2,1-a]pyrrolo[1,2-c]phthalazine-7-carboxylic acid] |  | 0.75 | 5300 | 
COCCCOc1cc2c(cc1OCCCOC)[C@H]1CCC(C)(C)N1n1cc(C(=O)O)c(=O)cc1-2 [Example 23, (R)-11,12-bis(3-methoxypropoxy)-3,3-dimethyl-8-oxo-2,3,8,13b-tetrahydro-1H-pyrido[2,1-a]pyrrolo[1,2-c]phthalazine-7-carboxylic acid] |  | 53 | > 10000 | 
COCCCOc1cc2c(cc1Cl)-c1cc(=O)c(C(=O)O)cn1N1[C@H]2CCCC1(C)C (single isomer, unassigned) [Example 13] |  | 34 | > 10000 | 
COCCCOc1cc2c(cc1Cl)-c1cc(=O)c(C(=O)O)cn1N1CCC[C@H]21 (single isomer, unassigned) [Example 2] |  | 110 | 3900 | 
COc1cc2c(cc1C#CC(C)(C)OC)[C@H]1CCC(C)(C)N1n1cc(C(=O)O)c(=O)cc1-2 [Example 43] |  | 7.6 | > 10000 | 
COc1cc2c(cc1Oc1ncccn1)[C@H]1CCC(C)(C)N1n1cc(C(=O)O)c(=O)cc1-2 [Example 41, (R)-11-methoxy-3,3-dimethyl-8-oxo-12-(pyrimidin-2-yloxy)-2,3,8,13b-tetrahydro-1H-pyrido[2,1-a]pyrrolo[1,2-c]phthalazine-7-carboxylic acid] |  | 120 | > 10000 | 
COCCCOc1cc2c(cc1COC)-c1cc(=O)c(C(=O)O)cn1N1[C@@H]2CCC12CC2 [Example 87, (R)-11′-(methoxymethyl)-12′-(3-methoxypropoxy)-8′-oxo-1′,2′,8′,13b′-tetrahydrospiro[cyclopropane-1,3′-pyrido[2,1-a]pyrrolo[1,2-c]phthalazine]-7′-carboxylic acid] | > 10000 | 4.2 |  | 
COCCCOc1cc2c(cc1Cl)-c1cc(=O)c(C(=O)O)cn1N1C2CCC12CC2 (stereo not shown) [Example 59, 11′-chloro-12′-(3-methoxypropoxy)-8′-oxo-1′,2′,8′,13b′-tetrahydrospiro[cyclopropane-1,3′-pyrido[2,1-a]pyrrolo[1,2-c]phthalazine]-7′-carboxylic acid] | > 10000 | 6 |  | 
COCCCOc1cc2c(cc1Cl)-c1cc(=O)c(C(=O)O)cn1N1[C@H](C)CC[C@H]21 (single isomer, unassigned) [Example 7] |  | 32 | > 10000 | 
COCCOCc1cc2c(cc1OC)-c1cc(=O)c(C(=O)O)cn1N1[C@@H]2CCC1(C)C [Example 78, (R)-11-methoxy-12-((2-methoxyethoxy)methyl)-3,3-dimethyl-8-oxo-2,3,8,13b-tetrahydro-1H-pyrido[2,1-a]pyrrolo[1,2-c]phthalazine-7-carboxylic acid] |  | 70 | > 10000 | 
CC1(C)CC[C@@H]2c3cc(OCc4ccccc4)c(OC(F)(F)F)cc3-c3cc(=O)c(C(=O)O)cn3N21 [Example 75, (R)-12-(benzyloxy)-3,3-dimethyl-8-oxo-11-(trifluoromethoxy)-2,3,8,13b-tetrahydro-1H-pyrido[2,1-a]pyrrolo[1,2-c]phthalazine-7-carboxylic acid] |  |  | 5000 | 6.1
CC1(C)CC[C@@H]2c3cc(OCCCOC4COC4)c(Cl)cc3-c3cc(=O)c(C(=O)O)cn3N21 [Example 98, (R)-11-chloro-3,3-dimethyl-12-(3-(oxetan-3-yloxy)propoxy)-8-oxo-2,3,8,13b-tetrahydro-1H-pyrido[2,1-a]pyrrolo[1,2-c]phthalazine-7-carboxylic acid] |  | 2.2 | > 10000 | 
COCCCOc1cc2c(cc1Cl)-c1cc(=O)c(C(=O)O)cn1N1CCC(C)(C)[C@H]21 (single isomer, unassigned) [Example 47] |  | 16 | 1700 | 
COCCCOc1cc2c(cc1Cl)-c1cc(=O)c(C(=O)O)cn1N1[C@H]2CCC12CC2 (single isomer, unassigned) [Example 57] | > 10000 | > 1000 |  | 
CC1(C)CC[C@@H]2c3cc(OCC45CC(C#N)(C4)C5)c(OC(F)(F)F)cc3-c3cc(=O)c(C(=O)O)cn3N21 [Example 92, (R)-12-((3-cyanobicyclo[1.1.1]pentan-1-yl)methoxy)-3,3-dimethyl-8-oxo-11-(trifluoromethoxy)-2,3,8,13b-tetrahydro-1H-pyrido[2,1-a]pyrrolo[1,2-c]phthalazine-7-carboxylic acid] |  | 3 | 8100 | 
COCCCOc1cc2c(cc1COC)-c1cc(=O)c(C(=O)O)cn1N1[C@@H]2CCC12CCC2 [Compound 110, (R)-11′-(methoxymethyl)-12′-(3-methoxypropoxy)-8′-oxo-1′,2′,8′,13b′-tetrahydrospiro[cyclobutane-1,3′-pyrido[2,1-a]pyrrolo[1,2-c]phthalazine]-7′-carboxylic acid] | > 10000 | 3.9 |  | 
COCCCOc1cc2c(cc1Cl)-c1cc(=O)c(C(=O)O)cn1N1[C@@H]2CCC1(COC)COC [Example 80, (R)-11-chloro-3,3-bis(methoxymethyl)-12-(3-methoxypropoxy)-8-oxo-2,3,8,13b-tetrahydro-1H-pyrido[2,1-a]pyrrolo[1,2-c]phthalazine-7-carboxylic acid] |  | 45 | > 10000 | 
COCCCOc1cc2c(cc1Cl)-c1cc(=O)c(C(=O)O)cn1N1C2CCCC1(C)C (stereo not shown) [Example 11, 13-chloro-12-(3-methoxypropoxy)-7,7-dimethyl-2-oxo-2,7,8,9,10,10a-hexahydrodipyrido[2,1-a:1′,2′-c]phthalazine-3-carboxylic acid] |  | 4.3 | > 10000 | 
COCCCOc1cc2c(cc1Cl)-c1cc(=O)c(C(=O)O)cn1N1[C@@H]2CCCC1(C)C (single isomer, unassigned) [Example 12] |  | 2.5 | 8800 | 
COCCOCc1cc2c(cc1OC(F)F)-c1cc(=O)c(C(=O)O)cn1N1[C@@H]2CCC1(C)C [Compound 108, (R)-11-(difluoromethoxy)-12-((2-methoxyethoxy)methyl)-3,3-dimethyl-8-oxo-2,3,8,13b-tetrahydro-1H-pyrido[2,1-a]pyrrolo[1,2-c]phthalazine-7-carboxylic acid] |  | 16.8 | > 10000 | 
COCCCOc1cc2c(cc1Cl)-c1cc(=O)c(C(=O)O)cn1N1[C@H]2COCC1(C)C (single isomer, unassigned) [Example 39] |  | 680 | > 10000 | 
COCc1cc2c(cc1OCC13CC(C#N)(C1)C3)[C@H]1CCC3(CC3)N1n1cc(C(=O)O)c(=O)cc1-2 [Compound 107, (R)-12′-((3-cyanobicyclo[1.1.1]pentan-1-yl)methoxy)-11′-(methoxymethyl)-8′-oxo-1′,2′,8′,13b′-tetrahydrospiro[cyclopropane-1,3′-pyrido[2,1-a]pyrrolo[1,2-c]phthalazine]-7′-carboxylic acid] | 7800 | 5.9 |  | 
COCCCOc1cc2c(cc1Cl)-c1cc(=O)c(C(=O)O)cn1[C@@H]1[C@H]2CCC1(C)C (single isomer, unassigned) [Example 34] |  | 220 | > 10000 | 
